Patent publication US10202353B2, “Therapeutic compounds” (Gilead Sciences, Inc., priority 2014, dated 2019)

Columns and labels:
[1] = tested on: HIV-IIIb; assay: Test A: Antiviral assay in MT4 Cells; format: cell-based, HIV-1; details: Human immunodeficiency virus 1, 120 h; 2 μM drug concentration; MT4 cells infected with HIV-IIIb, 5 days; calculated from dose response curve; values normalized to 100% where greater than 100; read-out: % Inhibition at 2 μM (percent inhibition of virus-induced cell killing)
Procedure: (§1) For the antiviral assay, 40 μL of a concentration required to achieve a final effective 1× test concentration of 3-fold serially diluted compound in culture medium with 10% FBS was added to each well of a 384-well plate (10 concentrations) in quadruplicate. MT4 cells were next mixed with HIV-IIIb at an m.o.i of 0.003 for 1 hour, after which time 35 μL of virus/cell mixture (2000 cells) was immediately added to each well containing 40 μL of diluted compound. The plates were then incubated at 37° C. for 5 days. After 5 days of incubation, 25 μl of 2× concentrated CellTiter-Glo™ Reagent (catalog # G7571, Promega Biosciences, Inc., Madison, Wis.) was added to each well containing MT-4 cells. Cell lysis was carried out by incubating at room temperature for 10 min and then chemiluminescence was read. EC50 values were calculated as the compound concentration that caused a 50% decrease in luminescence signal, a measure of HIV-1 replication. Percent inhibition of virus-induced cell killing calculated from the dose response curve at 2 μM drug concentration is shown in the table below.

[2] = Test B: Cytotoxicity Assay; format: cell-based; details: human, uninfected MT4 cells, same protocol as Test A
Procedure: as §1, with “below. Compound cytotoxicity and the corresponding CC50 values was determined using the same protocol as described in the antiviral assay (Test A) except that uninfected cells were used.” for “below.”

Row | SMILES | inhibition at 2 µM [1] | CC50 at 5 days [2]
1 | COc1ccc(N(C)C(=O)[C@H](Cc2cc(F)cc(F)c2)NC(=O)Cn2nc(C(F)(F)F)c3c2CCC(=O)C3)cc1 [Compound 28, (S)-3-(3,5-difluorophenyl)-N-(4-methoxyphenyl)-N-methyl-2-(2-(5-oxo-3-(trifluoromethyl)-4,5,6,7-tetrahydro-1H-indazol-1-yl)acetamido)propanamide] | 76% | 37.2 µM
2 | COc1ccc(N(C)C(=O)[C@H](Cc2cc(F)cc(F)c2)NC(=O)Cn2nc(C(F)(F)F)c3c2CCC(C)(O)C3)cc1 (stereo partly drawn) [Compound 29, (2S)-3-(3,5-difluorophenyl)-2-(2-(5-hydroxy-5-methyl-3-(trifluoromethyl)-4,5,6,7-tetrahydro-1H-indazol-1-yl)acetamido)-N-(4-methoxyphenyl)-N-methylpropanamide] | 82% | 32.1 µM
3 | CN(C(=O)[C@H](Cc1cc(F)cc(F)c1)NC(=O)Cn1[nH]c(=O)c2c1CCCC2)c1ccc(Cl)cc1 [Compound 30] | 100% | 22.2 µM
4 | COc1ccc(N(C)C(=O)[C@H](Cc2cc(F)cc(F)c2)NC(=O)Cn2ncc3c2CCCC3)cc1 [Compound 31, (S)-3-(3,5-difluorophenyl)-N-(4-methoxyphenyl)-N-methyl-2-(2-(4,5,6,7-tetrahydro-1H-indazol-1-yl)acetamido)propanamide] | 78% | > 53 µM
5 | CN(C(=O)[C@H](Cc1cc(F)cc(F)c1)NC(=O)Cn1c(N)nc2c1c(=O)[nH]c(=O)n2C)c1ccc(Cl)cc1 [Compound 32, (S)-2-(2-(8-amino-3-methyl-2,6-dioxo-2,3-dihydro-1H-purin-7(6)-yl)acetamido)-N-(4-chlorophenyl)-3-(3,5-difluorophenyl)-N-methylpropanamide] | 39% | > 53 µM
6 | CN(C(=O)[C@H](Cc1cc(F)cc(F)c1)NC(=O)Cc1cc(F)cc2c1OCOC2)c1ccc(Cl)cc1 [Compound 33, (S)—N-(4-chlorophenyl)-3-(3,5-difluorophenyl)-2-(2-(6-fluoro-4H-benzo[d][1,3]dioxin-8-yl)acetamido)-N-methylpropanamide] | 34% | 18.4 µM
7 | CN(C(=O)[C@H](Cc1cc(F)cc(F)c1)NC(=O)Cn1nc(C(F)(F)F)c2c1C(F)(F)C1CC21)c1ccc2c(c1)CNC2=O (stereo partly drawn) [Compound 34, (2S)-2-(2-(5,5-difluoro-3-(trifluoromethyl)-3b,4,4a,5-tetrahydro-1H-cyclopropa[3,4]cyclopenta[1,2-c]pyrazol-1-yl)acetamido)-3-(3,5-difluorophenyl)-N-methyl-N-(1-oxoisoindolin-5-yl)propanamide] | 97% | > 53 µM
